Laboratory results published in US11629174B2, “Cryptic metabolites and method for activating silent biosynthetic gene clusters in actinomycete bacteria” (The Trustees of Princeton University, priority 2017, dated 2023).
Read-outs that look alike come from different tables or passages of the source. Each block holds one molecule with its values, some of them ahead of it. Square brackets hold non-standard residues; d marks the D form. Peptide text beside a SMILES is read from it. * marks the point of attachment. ξ: configuration not given here. dIle(3ξ) = CCC(C)[C@@H](N)C(=O)O; Ile(3ξ) = CCC(C)[C@H](N)C(=O)O; ξK = NCCCCC(N)C(=O)O; Butyryl = CCCC(=O)*

Assays:
Gene cluster 3648 = assay: HiTES in S. avermitilis, gene cluster 3648; type: cell-based; conditions: FIGS. 16 and 17
S. cerevisiae = assay: Antifungal microtiter assay; type: cell-based; conditions: Saccharomyces cerevisiae, 40 h, OD600
Experimental: Bacillus subtilis 168, E. coli K 12, Pseudomonas aeruginosa PAO1, Enterococcus faecalis OG1RF, Staphylococcus aureus Newman, Saccharomyces cerevisiae and Saccharomyces pombe were used for antibiotic assays. B. subtilis (30° C.), E. coli (37° C.), P. aeruginosa (30° C.), and E. faecalis (37° C.) were cultured in LB medium at the temperatures indicated. S. aureus was cultured in Brain-Heart-Infusion (BHI) medium at 37° C. S. cerevisiae and S. pombe were grown at 25° C. in YPM medium (0.5% yeast extract, 0.3% peptone, 2.5% mannitol), and YES medium (0.5% yeast extract, 3% glucose, 225 mg/L leucine, 225 mg/L histidine, 225 mg/L adenine, 225 mg/L uracil), respectively. The assays were carried out in accordance with the 2003 guidelines of the Clinical and Laboratory Standards Institute (CLSI) using the microtiter method. Briefly, microbial seed cultures were initiated by inoculating 3 mL of the indicated medium each strain and by growing these overnight at the indicated temperatures. Each culture was then diluted to an initial OD600 nm of 0.02 in 100 μL volume per well in a 96-well plate, which gave an inoculum of ˜5×10^5 to 5×10^6 cells. […] The plates were then incubated at the temperatures listed above without shaking and OD600 nm determined after 16 h (bacteria) or 40 h (yeast). […]

surA and surC = assay: RT-qPCR of surA and surC transcripts in wt S. albus; type: cell-based, Streptomyces albus J1074; conditions: for induction of surA and surC: mRNA vs DMSO control, wt S. albus
Experimental: In the example above, the effects of these putative elicitors on the sur cluster were validated by performing a RT-qPCR with wt S. albus. Upon exposure of S. albus to each elicitor or DMSO (control), total RNA was be isolated, converted to cDNA and the surA and surC transcripts quantified by qPCR. […] To further verify the effect of 1 and 2, a dose-response assay was carried out. With both elicitors, a concentration-dependent induction of sur was observed, yielding optimal upregulation at a final concentration of ˜23 μM (etoposide) and −30 μM (ivermectin) (FIG. 4B). These concentrations induced a ˜10-fold (etoposide) and 4.5-fold (ivermectin) upregulation of surC.
All operations involving RNA utilized a dedicated RNase-free work area. To commence the experiment, seed cultures of wt S. albus J1074 were prepared by inoculating 3 ml of TSBY medium (3% (w/v) tryptic soy broth and 0.5% yeast extract) in a sterile 14 ml bacterial culture tube with freshly-prepared spores (˜10^7). The culture was incubated at 30° C. and 250 rpm in an Ecotron Shaker (ATR). After 48 hours cultivation, the cells were collected by centrifugation and subsequently diluted to a final concentration of 0.05% (w/v) in 250 ml Erlenmeyer flask containing 50 ml of R4 medium. Desired elicitors were added to final concentrations indicated in the figures (typically 1-100 μM), and the cultures were incubated at 30° C. and 250 rpm. After 48 h, 1 ml was removed from each sample and transferred to a 1.5 ml RNase-free Eppendorf tube (Ambion). Each sample was centrifuged (16,000 g, 3 min) to collect the cells, the supernatant discarded, the cells flash-frozen in liquid N2, and stored at −80° C.
RNA isolation was carried out using the Qiagen RNeasy kit following the manufacturer's instructions without modifications. Upon isolation, contaminating DNA was removed using the DNA-free kit (Ambion) according to manufacturer's instructions. Gel electrophoreses subsequently confirmed RNA integrity (FIG. S2). Finally, total RNA was converted into cDNA via the PrimeScript™ RT reagent Kit (Takara) using random hexamers as primers and 500 ng of each RNA sample as template.
Three genes (surA, surC and surR) were chosen for quantification by RT-qPCR. The primers were designed using primer-3-plus software available online. The primers were carefully chosen to give an amplicon length of 130-160 bp and a melting temperature of 60° C., though this was later optimized (see below and Table 2). The primers were chosen to vary in length between 18-22 bp, and, if possible, to contain a single G/C clamp at the 3′ end. To ensure optimal qPCR parameters, the genomic DNA of S. albus J1074 was isolated using the Wizard genomic DNA purification kit (Promega), and each amplicon was subsequently amplified using standard PCR conditions with a high-fidelity, proof-reading Q5 DNA polymerase (NEB). The PCR reactions were then separated on a 1.2% agarose gel, the amplicon excised, and gel-extracted with the Gel Extraction kit (Qiagen). The extracted DNA was used to optimize qPCR conditions. Using the amplicon template, the primer concentrations were first varied followed by the annealing/extension temperatures, which ranged from 58-68° C. in eight steps. The combination that gave the lowest quantification cycle (Cq) was used in the experiments (Table 2). The Cq was obtained with an automatic baseline determined by the CFX Manager Software (Bio-Rad). As positive controls, these standards were included in every plate that contained the experimental samples, along with no-DNA controls, in duplicates.
qPCR analysis was performed on a CFX96 Real-Time PCR Detection System (Bio-Rad) consisting of a C1000 Thermal Cycler and a CFX96 Real-Time System. The reaction was carried out in hard-shell, clear 96-well qPCR plates (Bio-Rad) and utilized the iTaq Universal SYBR Green Supermix (Bio-Rad). […]

sur cluster = assay: High-throughput elicitor screen (HiTES), eGFPx3 reporter strains of the sur cluster; type: cell-based, Streptomyces albus J1074; conditions: attB::Psur-eGFPx3 and surE::eGFPx3, ~33 μM, 60 h, hit threshold 2.5-fold eGFP fluorescence
Experimental: These next four steps are seen be referring to the previously described example. In the previously described example, HiTES was carried out using the two constructs seen in FIGS. 2B and 2C with a ˜500-member natural products library. Each S. albus construct was grown in a 96-well format, supplemented with the compound library, and the effect of each compound on the silent BGC determined using eGFP-derived fluorescence. Interference from naturally fluorescent compounds in the library was eliminated by subtracting the […], immediately after addition of the library members.
Referring to FIGS. 3A and 3B, results for both genetic constructs are shown. These graphs show relative expression of a neutral site reporter, attB::Psur-eGFPx3 (FIG. 3A) or targeted sur reporter, surE::eGFPx3 (FIG. 3B) as a function of exogenously-supplied small molecules. Each bar represents the level of expression of sur in the presence of a single candidate elicitor. Plus signs denote the positive control, attB::PermE-eGFPx3. Minus signs denote the negative controls, attB::Psur-eGFPx3 (3A) or surE::eGFPx3 (3B) in the absence of any metabolites. The expression has been normalized to the positive control.
In this example, the threshold amount was a 2.5 fold induction of eGFP-derived fluorescence emission. Thus, hits were considered those that gave at least a 2.5-fold induction of eGFP-derived fluorescence emission. However, in other embodiments, hits may be those giving at least a 2 fold induction, more preferably at least a 3 fold induction, and more preferably at least a 4 fold induction.
Seed cultures for the reporter strains sur::eGFPx3, attB::Psur-eGFPx3, negative control wild-type, and positive control attB::PermE-eGFPx3 inoculated by transferring fresh spores (˜10^7) into 20 mL of YEME medium (per L: 3% (w/v) yeast extract, 5% peptone, 3% malt extract, 1% glucose and 10.7% sucrose, and 5 mM MgCl2.6H2O) in a 125 mL Erlenmeyer flask equipped with stain-less steel springs. The cultures were grown at 30° C. and 250 rpm for 3 days. Mycelia from each of the four cultures were collected by centrifugation (10 min, 3000 g, RT) and diluted into 150 mL of R4 medium to give a final concentration of 0.05% (w/v). R4 medium consisted of (per L) 0.5% (w/v) glucose, 0.1% yeast extract, 0.5% MgCl2.6H2O, 0.2% CaCl2.2H2O, 0.15% proline, 0.118% valine, 0.28% TES, 50 mg/L casamino acid, 100 mg/L K2SO4, and 1× trace element solution, which contains 40 mg/L ZnCl2, 200 mg/L FeCl3.6H2O, 10 mg/L CuCl2.2H2O, 10 mg/L MnCl2.4H2O, 10 mg/L Na2B4O7.10H2O, and 10 mg/L (NH4)6Mo7O24.4H2O).
Subsequently, the two reporter strains (sur::eGFPx3 and attB::Psur-eGFPx3) were each dispensed into 5× sterile, clear-bottom 96-well plates (150 μL per well) using a MultiFlo Microplate Dispenser (BioTek). A separate sterile 96-well separate plate was prepared for positive and negative controls; it contained the negative control (wt S. albus J1074) in columns 1-3, sur::eGFPx3 in columns 4-6, attB::Psur-eGFPx3 in columns 7-9, and the positive control attB::PermE-eGFPx3 in columns 10-12 of the plate. No elicitors were added to the control plates. […] Upon additional of the compound library, t=0 fluorescence reads were recorded on a Synergy H1MF plate reader (BioTek) using Aex=485 nm and Aem=505-650 nm in 5 nm steps. […]

Gene cluster 2631 = assay: HiTES in S. erythraea, gene cluster 2631; type: cell-based; conditions: FIG. 10
Gene cluster 4143 = assay: HiTES in S. erythraea, gene cluster 4143; type: cell-based; conditions: FIG. 12
Gene cluster 4477 = assay: HiTES in S. erythraea, gene cluster 4477; type: cell-based; conditions: FIG. 14
cathepsin B = biological target: T1, cathepsin B (Homo sapiens, UniProt P07858); assay: Cathepsin B inhibition assay (fluorescence kit); type: biochemical
T1 construct: purchased Sigma-Aldrich
Experimental: Cathepsin B inhibition assays were carried as previously reported using the Cathepsin B Inhibition assay kit (Sigma-Aldrich). The fluorescence-based assays was conducted in a final volume of 50 μL according to manufacturer instructions. Fluorescence emission was determined in a microtiter plate in kinetic mode (1 read per minute for 1 h) using a BioTek H1MF plate reader and Aex˜400/Acm˜505 nm. IC50 values were subsequently calculated according to instructions.

[1] = tested on: 36 diverse cancer cell lines; conditions: cited from earlier work
Gene cluster 4286 = assay: HiTES in S. erythraea, gene cluster 4286; type: cell-based; conditions: FIG. 13

Molecule: COc1cc(CNC(=O)CCCC/C=C/C(C)C)ccc1O [Capsacin]
elicitor of gene cluster 3648 (ranking) (Gene cluster 3648): top four elicitors

Molecule: CCCC(=O)NCCCCC1NC(=O)[C@@H](C(C)CC)NC(=O)[C@H](C(C)CC)NC(=O)[C@@H](C)NC(=O)[C@H](C(C)CC)NC(=O)[C@@H](CC(C)C)NC(=O)[C@@H](Cc2ccccc2)NC(=O)[C@H](C(C)CC)NC1=O (stereo partly drawn) [acylsurugamide A] (cyclo([Ile(3ξ)][dA][Ile(3ξ)][dIle(3ξ)][ξK](Butyryl)[Ile(3ξ)][dF][dL]))
IC50 (S. cerevisiae): 3.5 µM

Molecule: CC#C[C@]1(O)CC[C@H]2[C@@H]3CCC4=CC(=O)CCC4=C3[C@@H](c3ccc(N(C)C)cc3)C[C@@]21C [Mifepristone]
elicitor of gene cluster 3648 (ranking) (Gene cluster 3648): top four elicitors

Molecule: CC(C)[C@@]1(NC(=O)[C@@H]2C[C@@H]3c4cccc5[nH]cc(c45)C[C@H]3N(C)C2)O[C@@]2(O)[C@@H]3CCCN3C(=O)[C@H](Cc3ccccc3)N2C1=O [dihydroergocristine]
induction of surA and surC (surA and surC): 3 fold
induction of the sur cluster in both reporter strains (hit ranking) (sur cluster): best hits

Molecule: bromolaudanosine
induction of the sur cluster in both reporter strains (hit ranking) (sur cluster): best hits

Molecule: Oc1cc(O)cc(/C=C/c2ccc(O)c(O)c2)c1 [piceattanol]
induction of the sur cluster in both reporter strains (hit ranking) (sur cluster): best hits

Molecule: COc1c2ccoc2cc2oc(=O)ccc12 [Bergapten]
elicitor of gene cluster 2631 (ranking) (Gene cluster 2631): top three elicitors

Molecule: ivermectin
upregulation of surC (surA and surC; at the optimal elicitor concentration, vs DMSO): 4.5 fold
induction of surA and surC (surA and surC): 3 fold
elicitor of gene cluster 4143 (ranking) (Gene cluster 4143): top three elicitors
induction of the sur cluster in both reporter strains (hit ranking) (sur cluster): best hits

Molecule: OCc1c[nH]c2ccccc12 [Indole-3-carbinol]
elicitor of gene cluster 4477 (ranking) (Gene cluster 4477): top three elicitors
elicitor of gene cluster 4143 (ranking) (Gene cluster 4143): top three elicitors

IC50 (cathepsin B): 9 µM
Molecule: CC(C)C[C@H]1NC(=O)[C@@H](Cc2ccccc2)NC(=O)[C@H](C(C)C)NC(=O)[C@H](CCCCN)NC(=O)[C@@H](C(C)C)NC(=O)[C@H](C(C)C)NC(=O)[C@@H](C)NC(=O)[C@H](C(C)C)NC1=O [surugamide I] (cyclo(KV[dF][dL]V[dA]V[dV]))

Molecule: CNC1=CC(=O)c2cc(C)ncc2C1=O [compound 25, 3-methyl-7-methylamino-5,8-isoquinolinedione]
IC50 ([1]; read-out: IC50s (range over panel)): 0.2 to 50 µM
IC50 ([1]; read-out: mean IC50): 3.5 µM

Molecule: CC[C@H](C)/C=C(C)/C=C/C1=CC2=C(Cl)C(=O)[C@](C)(OC(C)=O)C(=O)C2=CO1 [Sclerotiorin]
elicitor of gene cluster 4286 (ranking) (Gene cluster 4286): top three elicitors
